The values that follow come from article PMC2099433, “The binding site for neohesperidin dihydrochalcone at the human sweet taste receptor” (BMC Structural Biology, 2007).

Assay [1] concerns the target T1, hTAS1R2 + hTAS1R3 R790Q^ex3 (Homo sapiens, UniProt Q7RTX0+Q8TE23, R790Q).
T1 construct: expressed in transfected cells; host or cells: HEK293T cells stably expressing G16Gust44
T1 sequence (Q8TE23 20-839): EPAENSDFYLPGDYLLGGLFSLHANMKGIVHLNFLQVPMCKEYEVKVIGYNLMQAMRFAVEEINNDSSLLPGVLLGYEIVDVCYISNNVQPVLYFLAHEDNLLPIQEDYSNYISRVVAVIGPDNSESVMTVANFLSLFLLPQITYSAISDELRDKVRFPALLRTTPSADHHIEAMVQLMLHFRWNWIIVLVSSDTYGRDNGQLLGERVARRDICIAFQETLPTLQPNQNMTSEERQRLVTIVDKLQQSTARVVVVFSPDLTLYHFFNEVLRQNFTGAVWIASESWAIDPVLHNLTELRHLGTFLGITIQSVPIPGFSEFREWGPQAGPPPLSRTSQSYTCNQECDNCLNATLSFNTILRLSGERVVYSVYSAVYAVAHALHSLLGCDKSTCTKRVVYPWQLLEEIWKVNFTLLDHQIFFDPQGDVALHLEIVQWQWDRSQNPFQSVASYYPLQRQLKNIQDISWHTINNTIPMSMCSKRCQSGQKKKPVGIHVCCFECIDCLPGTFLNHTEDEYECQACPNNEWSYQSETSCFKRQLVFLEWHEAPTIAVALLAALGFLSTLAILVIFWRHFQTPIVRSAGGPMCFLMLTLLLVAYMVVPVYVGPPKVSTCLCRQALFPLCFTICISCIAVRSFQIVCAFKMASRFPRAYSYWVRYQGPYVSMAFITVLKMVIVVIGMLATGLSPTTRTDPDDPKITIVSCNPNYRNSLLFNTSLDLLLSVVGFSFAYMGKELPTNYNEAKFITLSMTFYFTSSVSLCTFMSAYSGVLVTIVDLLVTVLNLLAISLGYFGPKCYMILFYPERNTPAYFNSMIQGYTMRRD
T1 sequence (Q7RTX0 21-852 R790Q): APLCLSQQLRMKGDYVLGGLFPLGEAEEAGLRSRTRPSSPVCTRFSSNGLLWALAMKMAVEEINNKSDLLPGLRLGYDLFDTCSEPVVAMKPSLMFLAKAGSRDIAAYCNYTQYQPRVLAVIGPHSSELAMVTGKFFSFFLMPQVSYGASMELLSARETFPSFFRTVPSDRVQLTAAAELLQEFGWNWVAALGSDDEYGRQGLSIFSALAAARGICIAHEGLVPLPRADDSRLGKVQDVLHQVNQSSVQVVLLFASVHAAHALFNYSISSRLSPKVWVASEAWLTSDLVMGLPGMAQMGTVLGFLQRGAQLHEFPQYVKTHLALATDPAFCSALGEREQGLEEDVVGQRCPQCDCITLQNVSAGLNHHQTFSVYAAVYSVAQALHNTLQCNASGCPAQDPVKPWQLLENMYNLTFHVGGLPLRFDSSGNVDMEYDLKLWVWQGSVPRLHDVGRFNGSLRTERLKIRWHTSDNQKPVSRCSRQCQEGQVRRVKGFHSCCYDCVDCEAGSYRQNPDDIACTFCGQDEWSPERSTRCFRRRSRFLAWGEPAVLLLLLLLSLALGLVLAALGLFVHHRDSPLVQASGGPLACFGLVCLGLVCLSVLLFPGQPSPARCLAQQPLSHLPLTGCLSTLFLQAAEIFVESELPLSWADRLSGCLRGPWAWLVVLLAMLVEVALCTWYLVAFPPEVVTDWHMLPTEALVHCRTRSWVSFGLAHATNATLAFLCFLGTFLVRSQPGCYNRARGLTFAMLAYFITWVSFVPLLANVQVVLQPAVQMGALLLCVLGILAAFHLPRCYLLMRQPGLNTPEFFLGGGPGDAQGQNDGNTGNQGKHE
Put plainly: Calcium response (FLIPR), hTAS1R3 mutant coexpressed with hTAS1R2. The assay is classed as cell-based. As to conditions: variant R790Q^ex3; for Emax: read-out: maximal signal (% of wt). The essentials:
(§1)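 HEK293T/G16Gust44, transient transfection of HSV-tagged TAS1R2 + TAS1R3 mutants; Fluo4-AM loading 1 h at 24 h; sweet tastants in C1 solution; FLIPR Ca2+ read; ΔF/F, mock-subtracted; ≥3 independent expts in duplicate.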

Assay [2] concerns the target T2, hTAS1R2 + hTAS1R3 Y699L^4.60 (Homo sapiens, UniProt Q7RTX0+Q8TE23, Y699L).
T2 construct: expressed in transfected cells; host or cells: HEK293T cells stably expressing G16Gust44
T2 sequence (Q7RTX0 21-852 Y699L): T1 sequence (Q7RTX0 21-852 R790Q) with Y679L, Q770R
T2 sequence (Q8TE23 20-839): T1 sequence (Q8TE23 20-839)
The assay is described as above. The assay is classed as cell-based. As to conditions: variant Y699L^4.60; for Emax: read-out: maximal signal (% of wt). The gist of the method:
as §1

For orientation: EC50 means the midpoint of the concentration-response curve.

Residue numbers refer to the chain shown, from its start. Where a SMILES comes first, the peptide text is derived from it.

As to `COc1ccc(CCC(=O)c2c(O)cc(O[C@@H]3O[C@H](CO)[C@@H](O)[C@H](O)[C@H]3O[C@@H]3O[C@@H](C)[C@H](O)[C@@H](O)[C@H]3O)cc2O)cc1O` [NHDC, neohesperidin dihydrochalcone], in assay [1], the EC50 is 100 ± 60 µM and the Emax came to 77 ± 15%. In assay [2], the EC50 was found to be 700 ± 100 µM and the Emax is 83 ± 40%.
For `COC(=O)[C@H](Cc1ccccc1)NC(=O)[C@@H](N)CC(=O)O` [aspartame] (HELM PEPTIDE1{D.F.[CO[*:1]]}$$$$V2.0), in that order: 900 ± 400 µM, 71 ± 30%, 1600 ± 400 µM and 78 ± 9%.
